Reference: patent publication US10118934B2 (Wisconsin Alumni Research Foundation, priority 2014, dated 2018)
≈ marks a conversion by molar mass, not a printed value. Where “and” joins values, the source holds several entries; their conditions need not be identical. Equal entries are not always repeated. Entries after “also recorded” stand apart in the source; their conditions may differ. Where two headings read alike, the source gives them in different places.

Assays:
MtUGM [1] = biological target: T1, MtUGM (Mycobacterium tuberculosis, UniProt P9WIQ1); conditions: compound library screened against MtUGM; cited from earlier work
[2] = dynamic light scattering (DLS) detection of colloidal aggregation; format: physicochemical
Description: To evaluate aggregation by DLS compounds were diluted from concentrated stocks in DMSO into filtered 50 mM potassium phosphate, pH 7.0. The final DMSO concentration was 1%, and compound concentrations were usually 100 μM. Samples were run in duplicates. All measurements were made at room temperature using a DynaPro MS/X (Wyatt Technology) with a 55 mW laser at 826.6 nm. The laser power was 100%, and the detector angle was 90°.

KpUGM [3] = biological target: T2, KpUGM (Klebsiella pneumoniae, UniProt Q48485); experiment: biochemical; format: binding; conditions: for Kd: probe displacement in competitive-binding FP assay
T2 construct: His-tag; made in house; host or cells: E. coli BL21(DE3)
Description: A fluorescence polarization assay was used to measure ligand binding to KpUGM [Soltero-Higgin et al. 2004, Carlson et al. 2006] Tumbling of the fluorescein-UDP conjugated probe was measured on a Tecan M1000 microplate reader, exciting with 470 nm light and monitoring emission at 525 nm. Each condition was tested in triplicate in the presence of 220 nM KpUGM and 23.3 nM of the probe. Data was fit with a one-site binding nonlinear regression in GraphPad Prism 6.

KpUGM [4] = biological target: T2, KpUGM; format: biochemical; conditions: for effect of detergent on KpUGM inhibition: presence and absence of 0.025% Tween 80; for Ki: Lineweaver-Burk analysis, competitive inhibition
Description: Anal Biochem, 1996: p. […] J Med Chem, 2002. 45(8): p. 1712-22] we repeated the assay in the presence of detergent (0.025% Tween 80).
(§1) Enzymatic activity of recombinant UGM was monitored using an HPLC-based assay [Wesener et al., 2013; Lee et al. 1996; Zhang, Q. and H.-w. […] J. Amer. Chem. Soc., 2000. 122(38): p. 9065-9070]. Reactions were performed in duplicate at 22° C. in 50 mM NaH2PO4 buffer (pH 7) with 20 nM enzyme and 20 mM fresh sodium dithionite. Small molecules were added from DMSO stocks to a final concentration of 1% DMSO. Concentration of UDP-Galf [Marlow, A. L. and L. L. Kiessling, Improved Chemical Synthesis of UDP-Galactofuranose. Org Lett, 2001. 3(16): p. 2517-2519] was held constant at the Km of the UGM homolog being analyzed, except for generation of Lineweaver-Burk plots. Reaction time and substrate concentration were varied for Lineweaver-Burk analysis, and each condition was tested in triplicate. Quenched reactions were run through a CarboPac PA-100 column (Thermo Scientific) on an Agilent 1260 Infinity HPLC using an isocratic elution of 200 mM ammonium acetate (pH 8) to separate substrate and product peaks.

HEK293 cells = experiment: cytotoxicity assay (CellTiter-Glo); format: cell-based
Description: Four thousand HEK 293T cells were added to wells of a sterile 96-well plate in 99 μl DMEM with 10% FBS. The plate was incubated for 24 hours at 37° C. with 5% CO2 to allow cells to attach. Cells were then treated with serially diluted small molecules or a vehicle control. The final DMSO concentration was 1% in each well. After 24 hours of incubation, viability of the treated cells was analyzed using CellTiter-Glo Luminescent Cell Viability Assay (Promega). Viability readings were normalized to DMSO control wells.

AmpC β-lactamase = AmpC β-lactamase (Escherichia coli, UniProt P00811); format: biochemical; conditions: for inhibition of AmpC β-lactamase: 100 μM
Description: (§2) Compounds were tested for inhibition of Malate Dehydrogenase and AmpC β-lactamase as reported. Assays were performed in 50 mM potassium phosphate buffer, pH 7.0 at 25° C. For AmpC the molecules were mixed with buffer and CENTA substrate (50 μM; Tydock Pharma; Modena, Italy) to a final concentration of 1% DMSO (v/v). Reactions were initiated by addition of β-Lactamase (1 nM). Change in absorbance was monitored at 405 nm for 3 minutes. For Malate Dehydrogenase assay (MDH; Sigma Cat# M-7032), the molecule was mixed with buffer and 2 nM final concentration of the enzyme to a final concentration of 1% DMSO (v/v) and were incubated for five minutes. MDH reactions were started by adding substrates: Oxaloacetic acid (20 mM stock in buffer, prepared fresh daily; Sigma Cat# O4126) to a final concentration 200 μM and NADH (20 mM stock in buffer—prepare fresh daily; Sigma Cat# N-4505) to a final concentration 200 μM. Change in absorbance was monitored at […] for 2.5 minutes. Absorbance was monitored on an HP 8453 UV—visible spectrophotometer (Agilent, Technologies, Santa Clara, Calif.). The assays were performed in duplicate in methacrylate disposable cuvettes.

M. smegmatis [5] = experiment: microbroth dilution assay with alamar Blue readout; format: cell-based, Mycobacterium smegmatis; conditions: liquid culture
MtUGM [6] = biological target: T1, MtUGM; experiment: HPLC-based UGM activity assay, homolog specificity; format: biochemical; conditions: 100 μM compound
CdUGM = biological target: T3, CdUGM (Corynebacterium diphtheriae, UniProt Q6NER4); experiment: HPLC-based UGM activity assay, homolog specificity; format: biochemical, C. diphtheriae; conditions: 100 μM compound
T3 construct: Open reading frame coding for residue 18-404 of CdUGM was amplified; His-tag with TEV cleavage site (N); made in house; host or cells: Escherichia coli ER2523
Description: The specificity of in vitro UGM inhibition was assessed using purified recombinant UGM homologs. MtUGM and C. diptheriae UGM (CdUGM) share about 43% sequence identity with KpUGM, and 76% identity with each other. However, active site residues are highly conserved between the homologs. […] This trend was consistent for other analogs from this series (FIG. 14).
as §1

E. coli = experiment: disk diffusion assay; format: cell-based; conditions: solid media, tested concentration
Description: J Bacteriol, 1989. 171(3): p. […] Cells were incubated at 37° C. overnight.

M. smegmatis [7] = experiment: disk diffusion assay; conditions: solid media, 100 nmol per disk
Description: (§3) 1-8], and M. smegmatis were grown, the former two species in LB broth and the later in 7H9 Middlebrook media. Cells were diluted to an OD600 of 0.2 in fresh media and spread (100 μL) onto LB agar plates. Following an hour of incubation at 37° C., sterile cloning disks (3.2 mm diameter, Scienceware) impregnated with 100 nmol of compound or 2 μL of DMSO were placed on the surface of the inoculated solid media. Cells were incubated at 37° C. overnight. Plates with M. smegmatis were incubated 3 additional days at room temperature. Zones of inhibition were measured from the outer edge of the cloning disk to the border of cell growth.

B. subtilis [8] = experiment: broth microdilution, control strain without UGM; format: cell-based; conditions: control strain without UGM ortholog
[9] = biological target: T4, Malate Dehydrogenase (MDH) (Thermus thermophilus, UniProt P10584); experiment: aggregation counter screen, malate dehydrogenase inhibition; format: biochemical
T4 construct: purchased Sigma M-7032
Description: as §2

B. subtilis [10] = experiment: disk diffusion assay; conditions: solid media, 100 nmol per disk
Description: as §3

B strain E. coli = experiment: broth microdilution, control strain without UGM; format: cell-based; conditions: control strain without UGM ortholog

T2 sequence (Q48485 24-384): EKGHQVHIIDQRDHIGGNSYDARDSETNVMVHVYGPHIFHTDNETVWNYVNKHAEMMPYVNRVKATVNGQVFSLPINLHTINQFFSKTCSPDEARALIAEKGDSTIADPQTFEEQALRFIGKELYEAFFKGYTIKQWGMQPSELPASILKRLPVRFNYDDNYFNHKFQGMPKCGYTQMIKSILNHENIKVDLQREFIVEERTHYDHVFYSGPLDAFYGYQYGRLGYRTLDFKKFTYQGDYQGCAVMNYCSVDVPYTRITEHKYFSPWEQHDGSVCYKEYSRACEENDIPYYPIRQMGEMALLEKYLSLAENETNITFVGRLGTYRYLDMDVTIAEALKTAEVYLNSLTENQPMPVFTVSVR
T4 sequence (P10584 whole entry): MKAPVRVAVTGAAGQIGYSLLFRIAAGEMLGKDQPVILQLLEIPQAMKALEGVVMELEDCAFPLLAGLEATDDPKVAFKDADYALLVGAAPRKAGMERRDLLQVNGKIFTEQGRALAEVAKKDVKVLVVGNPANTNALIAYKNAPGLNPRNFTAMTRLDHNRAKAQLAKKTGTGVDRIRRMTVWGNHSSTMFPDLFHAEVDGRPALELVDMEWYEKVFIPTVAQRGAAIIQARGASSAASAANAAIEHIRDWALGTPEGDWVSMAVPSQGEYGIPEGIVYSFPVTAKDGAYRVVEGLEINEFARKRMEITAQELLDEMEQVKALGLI
T1 sequence (P9WIQ1 whole entry): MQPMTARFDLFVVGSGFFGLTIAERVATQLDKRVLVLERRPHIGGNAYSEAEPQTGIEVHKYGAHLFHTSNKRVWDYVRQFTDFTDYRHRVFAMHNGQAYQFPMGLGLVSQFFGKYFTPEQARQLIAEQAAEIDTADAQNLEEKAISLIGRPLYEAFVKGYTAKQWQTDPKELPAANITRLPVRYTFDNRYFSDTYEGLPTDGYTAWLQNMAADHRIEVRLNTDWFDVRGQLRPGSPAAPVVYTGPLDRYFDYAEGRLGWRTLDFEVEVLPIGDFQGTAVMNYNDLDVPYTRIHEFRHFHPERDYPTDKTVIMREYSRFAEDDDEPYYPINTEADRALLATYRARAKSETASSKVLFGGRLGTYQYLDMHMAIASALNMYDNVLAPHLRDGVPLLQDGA
Sequence of AmpC β-lactamase (P00811 20-377): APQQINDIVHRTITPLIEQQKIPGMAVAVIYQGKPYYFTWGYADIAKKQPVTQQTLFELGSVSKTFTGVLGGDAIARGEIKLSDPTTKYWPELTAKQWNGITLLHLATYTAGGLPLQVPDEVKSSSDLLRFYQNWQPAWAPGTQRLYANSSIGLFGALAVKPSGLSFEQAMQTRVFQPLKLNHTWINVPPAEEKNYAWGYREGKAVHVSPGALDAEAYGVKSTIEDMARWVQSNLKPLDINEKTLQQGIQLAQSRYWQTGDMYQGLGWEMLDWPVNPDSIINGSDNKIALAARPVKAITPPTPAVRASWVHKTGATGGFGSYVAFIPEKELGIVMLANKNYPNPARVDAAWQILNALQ
T3 sequence (Q6NER4 entry or part of it): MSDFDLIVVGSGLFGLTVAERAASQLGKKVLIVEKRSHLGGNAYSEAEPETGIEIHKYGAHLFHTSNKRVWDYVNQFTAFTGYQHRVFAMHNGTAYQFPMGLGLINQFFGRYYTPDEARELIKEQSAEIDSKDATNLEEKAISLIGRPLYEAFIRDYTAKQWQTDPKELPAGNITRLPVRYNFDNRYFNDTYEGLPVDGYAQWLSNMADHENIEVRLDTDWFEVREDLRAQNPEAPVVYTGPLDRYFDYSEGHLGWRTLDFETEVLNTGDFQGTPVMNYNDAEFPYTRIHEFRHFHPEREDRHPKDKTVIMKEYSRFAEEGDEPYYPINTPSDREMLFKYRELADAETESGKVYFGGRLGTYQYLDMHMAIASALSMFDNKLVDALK

## O=C(O)CCC(=O)N1N=C(c2ccccc2)CC1c1cccs1 (stereo not shown) [Compound 3]
MtUGM [1]
  detection as hit in HTS: not detected by HTS

## O=C(O)CC1Sc2nnc(-c3ccco3)n2N=C1c1ccccc1 (stereo not shown) [Compound 6]
[2]; 100 μM
  colloidal aggregation by DLS: do not form detectable colloids; also recorded: do not aggregate; also recorded: no sign of colloidal aggregation
KpUGM [3]
  Kd: 62 µM and 43 µM
KpUGM [4]; 100 μM compound
  effect of detergent on KpUGM inhibition: insensitive to detergent
KpUGM [4]
  Ki: 78 µM
HEK293 cells; HEK293 cells
  cellular toxicity: no significant cellular toxicity
AmpC β-lactamase
  inhibition of AmpC β-lactamase: do not display any inhibition

## C=CCNc1nc(-c2cc(C)n(CCC(=O)O)c2C)cs1 [Compound 10]
[2]; 100 μM
  colloidal aggregation by DLS: do not form detectable colloids; also recorded: no sign of colloidal aggregation
KpUGM [3]
  Kd: 9 µM and 6 µM
KpUGM [4]; 100 μM compound
  effect of detergent on KpUGM inhibition: insensitive to detergent
AmpC β-lactamase
  inhibition of AmpC β-lactamase: do not display any inhibition

## Cc1cc(-c2csc(NC(C)c3ccccc3)n2)c(C)n1CCC(=O)O (stereo not shown) [Compound 14]
KpUGM [3]; FP assay
  binding compared with compound 10: slightly tighter binding than compound 10
KpUGM [3]
  Kd: 4.5 µM
KpUGM [4]; in vitro, dose-dependent
  KpUGM inhibition compared with lead compound 10: improved KpUGM inhibition; also recorded: increased dose-dependent KpUGM inhibition

## O=C(O)CC1Sc2nnc(Cc3ccc(F)cc3)n2N=C1c1ccccc1 (stereo not shown) [Compound 19]
[2]; 100 μM
  colloidal aggregation by DLS: form colloidal aggregates; also recorded: do form colloids
[2]; high concentrations
  colloidal aggregation by DLS: show aggregation
KpUGM [3]
  Kd: 15 µM

## O=C(O)CC1Sc2nnc(-c3cccs3)n2N=C1c1ccc(Cl)cc1 (stereo not shown) [Compound 22]
[2]; 100 μM
  colloidal aggregation by DLS: did not show any aggregation; also recorded: do not aggregate; also recorded: no sign of colloidal aggregation
M. smegmatis [5]; tested concentrations
  M. smegmatis growth repression: no M. smegmatis growth repression
MtUGM [6]
  inhibition of MtUGM: 19%
KpUGM [3]
  Kd: 9 µM and 9.2 µM
KpUGM [4]
  Ki: 7 µM
CdUGM
  inhibition of CdUGM: 38%

## Cc1ccc(C2=Nn3c(COc4ccc(Cl)cc4)nnc3SC2CC(=O)O)cc1 (stereo not shown) [Compound 24]
[2]; 100 μM
  colloidal aggregation by DLS: form colloidal aggregates; also recorded: do form colloids
[2]; high concentrations
  colloidal aggregation by DLS: show aggregation
KpUGM [3]
  Kd: 9 µM and 9.2 µM
MtUGM [1]
  detection as hit in HTS: not detected by HTS

## O=C(O)CC1Sc2nnc(Cc3ccc(Br)cc3)n2N=C1c1ccc(Cl)cc1 (stereo not shown) [Compound 30]
E. coli
  cell-killing in disk diffusion: No cell-killing
M. smegmatis [7]
  zone of growth inhibition, comparison within series: outperformed all other compounds of the series
B. subtilis [8]
  MIC: 500 µM (≈ 239 µg/mL)
[9]; addition of detergent
  effect of detergent on MDH inhibition: fully rescued by the addition of detergent; also recorded: reversible by the addition of detergent
[9]; full dose response curve, no detergent
  IC50: 55.7 µM
[9]; high concentrations
  inhibition of MDH: non-specific inhibition
[2]; 10 μM
  colloidal aggregation by DLS: does not aggregate
[2]; 100 μM
  colloidal aggregation by DLS: forms colloidal aggregates; also recorded: do form colloids
[2]; high concentrations
  colloidal aggregation by DLS: show aggregation
M. smegmatis [5]; 46 hours of growth, alamar blue
  MIC: 20 µM (≈ 9.56 µg/mL)
KpUGM [3]
  Kd: 4.5 µM and 4.7 µM
KpUGM [4]; 50 μM compound
  KpUGM activity in presence of compound: no measurable activity
KpUGM [4]; 100 μM compound
  KpUGM activity in presence of compound: no measurable activity
KpUGM [4]; KpUGM vs MtUGM and CdUGM
  selectivity between UGM homologs: selective for KpUGM over MtUGM and CdUGM
KpUGM [4]
  Ki: 1.1 µM
KpUGM [4]; from Ki values
  potency relative to compound 22 in vitro: about 5 fold
HEK293 cells
  difference between LD50 and MIC for M. smegmatis: 5 fold
HEK293 cells; HEK293 cells
  cellular toxicity: only mildly toxic
HEK293 cells; HEK293 cells, 24 hours
  LD50: ~100 µM
B. subtilis [10]
  zone of growth inhibition: significantly smaller than that observed for M. smegmatis
AmpC β-lactamase; high concentrations
  inhibition of AmpC: non-specific inhibition
B strain E. coli
  MIC: > 500 µM
